Test results: the NIST ThermoML archive (doi:10.1016/j.fluid.2008.09.004)

Key:
[1] = 101.33 kPa, Liquid; for mass density: Vibrating tube method; for speed of sound: Sing-around technique in a fixed-path interferometer
[2] = molar heat capacity at constant pressure; details: 101.33 kPa, Liquid, Small sample (50 mg) DSC
[3] = excess molar enthalpy (molar enthalpy of mixing); xn = mol fraction of the nth substance listed; details: 303.15 K, 101 kPa, Liquid, Calvet calorimetry

CCCCn1cc[n+](C)c1.COS(=O)(=O)[O-] [1-butyl-3-methylimidazolium methyl sulfate]
Details	mass density, [1] [kg/m3]	molar heat capacity at constant pressure, [2] [J/K/mol]
293.15 K	1210.7	413.7
298.15 K	1207.4	416.2
303.15 K	1204.1	418.5
308.15 K	1200.8	420.9
313.15 K	1197.5	423.3
318.15 K	1194.2	425.6

CCCCn1cc[n+](C)c1.F[B-](F)(F)F [1-butyl-3-methylimidazolium tetrafluoroborate]
Details	mass density, [1] [kg/m3]	molar heat capacity at constant pressure, [2] [J/K/mol]
293.15 K	1207.6	359.8
298.15 K	1204.1	363.1
303.15 K	1200.5	366.1
308.15 K	1197	368.7
313.15 K	1193.4	371
318.15 K	1189.9	372.9

CCCCn1cc[n+](C)c1.O=S(=O)([O-])C(F)(F)F [1-butyl-3-methylimidazolium trifluoromethanesulfonate]
Details	mass density, [1] [kg/m3]	molar heat capacity at constant pressure, [2] [J/K/mol]	speed of sound, [1] [m/s]
293.15 K	1301.6	421.6	1403.4
298.15 K	1297.6	424.1	1392.1
303.15 K	1293.7	426.7	1380.9
308.15 K	1289.7	429.5	1369.8
313.15 K	1285.8	432.4	1358.8
318.15 K	1281.9	435.5	1348.1

CCCC[n+]1cccc(C)c1.F[B-](F)(F)F [1-butyl-3-methylpyridinium tetrafluoroborate]
[1]
Details	speed of sound [m/s]
293.15 K	1599.8
298.15 K	1587
303.15 K	1574.8
308.15 K	1562.6
313.15 K	1550.7
318.15 K	1538.9

CCCC[n+]1cccc(C)c1.F[B-](F)(F)F [1-butyl-3-methylpyridinium tetrafluoroborate] + CCO
[3]
Details	excess molar enthalpy [kcal/mol]
x1 = 0.0306	0.132
x1 = 0.1031	0.324
x1 = 0.1976	0.483
x1 = 0.3036	0.588
x1 = 0.3966	0.621
x1 = 0.5083	0.596
x1 = 0.6001	0.535
x1 = 0.692	0.45
x1 = 0.8061	0.301
x1 = 0.8847	0.187

CCOS(=O)(=O)[O-].CCn1cc[n+](C)c1 [1-ethyl-3-methylimidazolium ethyl sulfate]
Details	mass density, [1] [kg/m3]	molar heat capacity at constant pressure, [2] [J/K/mol]
293.15 K	1240.6	392.2
298.15 K	1237.2	394.4
303.15 K	1233.8	396.8
308.15 K	1230.4	399.3
313.15 K	1227	402
318.15 K	1223.7	404.9

CCn1cc[n+](C)c1.O=S(=O)([O-])C(F)(F)F [1-ethyl-3-methylimidazolium trifluoromethanesulfonate]
Details	mass density, [1] [kg/m3]	molar heat capacity at constant pressure, [2] [J/K/mol]
293.15 K	1389.5	361.1
298.15 K	1385.3	363.2
303.15 K	1381.1	365.3
308.15 K	1376.9	367.4
313.15 K	1372.7	369.6
318.15 K	1368.6	371.8

CCCCCCn1cc[n+](C)c1.F[B-](F)(F)F [1-hexyl-3-methylimidazolium tetrafluoroborate]
Details	mass density, [1] [kg/m3]	molar heat capacity at constant pressure, [2] [J/K/mol]	speed of sound, [1] [m/s]
293.15 K	1148.8	425.1	1532.7
298.15 K	1145.3	427.8	1519.5
303.15 K	1141.8	430.4	1506.9
308.15 K	1138.4	433	1494.5
313.15 K	1135	435.5	1482.3
318.15 K	1131.6	438.1	1470.5

CCO [ethanol]
Details	mass density, [1] [kg/m3]	molar heat capacity at constant pressure, [2] [J/K/mol]	speed of sound, [1] [m/s]
293.15 K	789.6	111.3	1159.5
298.15 K	785.3	113.3	1142.5
303.15 K	781	115.3	1125.5
308.15 K	776.7	117.5	1108.6
313.15 K	772.3	119.7	1091.8
318.15 K	767.8	122.1	1075.1
